Results reported in US20110319360A1, “Method of including apoptosis/Cell death in leukemia cell using a purine nucleoside analogue” (U.S. Department of Veterans Affairs, priority 2010, published 2011).
Like-named read-outs stand apart in the source and are kept apart here.

Columns and labels:
normal PBMCs [1] = assay: MTS cytotoxicity assay on PBMCs from normal donors; assay type: cell-based, human; settings: for EC50: Homo sapiens, PBMC, read-out: ED50 (μM), PBMC
Protocol: For toxicity studies involving normal blood cells, normal volunteers were enrolled in an IRB-approved protocol for blood collection. PBMCs were isolated from heparin-anticoagulated blood by ficoll-Hypaque density gradient centrifugation.
(§1) 2.5×10^5 CLL cells were incubated in triplicate or quadruplicate in a 96-well tissue culture plate (Costar, Corning, N.Y.) with serial dilutions of LMP-420, fludarabine, and/or recombinant TNF-alpha (R&D Systems, Minneapolis, Minn.) in Hybridoma serum free media (SFM) (GIBCO/Invitrogen, Carlsbad, Calif.) containing 10% heat-inactivated fetal bovine serum (FBS) (Sigma) at 37° C. with 5% CO2. After 72 hours, 20 μl CellTiter 96® AQueous One Solution Cell Proliferation Assay (Promega, Madison, Wis.) MTS (3-(4,5 dimethylthiazol-2-yl)-5-(3-carboxymethoxyphenyl-2-(4-sulfophenyl)-2H-tetrazolium) reagent was added to each well and the absorbance was read at 490 nm on a Thermomax microplate reader (Molecular Devices, Sunnyvale, Calif.). We calculated fractional cytotoxicity as performed previously (Reference 12), comparing absorbance at 490 nm from treated cells to control cells incubated with media alone.
(§2) The concentration effective at killing 50% of CLL cells compared to media alone (ED50) was calculated when 50% fractional cytotoxicity occurred within the range of serial dilutions tested (Reference 12). If the ED50 fell below or above this range, it was set to either the lowest or the highest concentration tested, respectively, for the purposes of statistical analyses and graphical representation.

normal PBMCs [2] = assay: [3H]-thymidine proliferation assay, mitogen-stimulated normal PBMCs; assay type: cell-based, human; settings: Homo sapiens, PBMC, 96 h
Protocol: CLL cells (2×10^5 cells/well) were cultured in quadruplicate in a volume of 200 μl in 96-well tissue culture plates for 96 hours with 1 μM CpG-oligodeoxynucleotides (ODN) DSP30 (Reference 14) (Midland Certified Reagent Company, Midland, Tex.) and 100 units/ml IL-2 (R&D Systems) in the presence or absence of drug. As controls, cells were treated with media without DSP30/IL-2. Cells were incubated with 1 μCi/well [methyl-^3H]-thymidine (specific activity 6.7 Ci/mmol, PerkinElmer, Waltham, Mass., USA) for 14-18 hours prior to harvesting onto glass-fiber filters using a semi-automated cell harvester. [^3H]-thymidine incorporation was measured as counts per minute (cpm) using a Tri-Carb 2100 timed-resolved liquid scintillation counter (PerkinElmer). The same protocol was utilized for proliferation assays with normal PBMCs, with the exception that growth was stimulated by treatment with 10 μg/ml Phytohemagglutinin-P (PHA, Sigma), 5 μg/ml concanavalin A (ConA, Sigma), 2 μg/ml pokeweed mitogen (PWM, Sigma), 25 ng/ml muromonab-CD3 (α-CD3, Ortho Pharmaceuticals, Raritan, N.J.), or 50 ng/ml phorbol myristate acetate (PMA, Sigma) plus 1 μg/ml ionomycin (iono, Sigma) for 96 hours. Proliferation is reported as percent of control (drug-treated cpm/control-treated cpm×100%).

CLL cells = assay: MTS cytotoxicity assay on primary CLL cells; assay type: cell-based; settings: Homo sapiens, CLL cell, 72 h
Protocol: On the same day that heparin-anticoagulated venous blood was collected from participants, CLL cells were purified by methods described previously (Reference 11). Briefly, CLL cells were isolated from whole blood using the RosetteSep® B-cell enrichment cocktail (Stem Cell Technologies, Vancouver, BC, Canada) together with ficoll-Hypaque density gradient centrifugation. This method yielded CLL cell purity of greater than 95% CD5^+CD19^+ B-cells.
as §1, §2

CD19-positive B-cell = assay: Annexin V apoptosis of normal B-lymphocytes in PBMCs; assay type: cell-based, human; settings: 72 hours
Protocol: (§3) PBMCs were cultured at 10^6 cells/ml in a 12-well tissue culture plate. Cells were treated for 72 hours with vehicle control or drug for 72 hours, then harvested as above for staining. PBMCs were resuspended at 2×10^5 cells/tube in 100 μl buffer (HBSS, 0.5% bovine serum albumin, 0.1% sodium azide) and incubated for 30 min with CD3-FITC or CD19-FITC antibodies according to the manufacturer's protocol (BD Biosciences). Cells were then incubated with PE-annexin V and 7-AAD (BD Biosciences) in annexin V binding buffer (BD Biosciences) for 15 minutes prior to analysis of apoptosis on the Guava EasyCyte™ Plus system.

CD3-positive T-cell = assay: Annexin V apoptosis of normal T-lymphocytes in PBMCs; assay type: cell-based, human; settings: 72 hours
Protocol: as §3

[3] = system: CD34+ hematopoietic progenitor cells (erythroid colonies); assay: Colony formation assay, erythroid colonies; assay type: cell-based, human; settings: Homo sapiens, 336 h, read-out: mean IC50 for normal erythroid colony formation
Protocol: (§4) CD34^+ hematopoietic progenitor cells were isolated from PBMCs from two healthy donors using the CD34 Microbead Kit (Miltenyi Biotec, Auburn, Calif.). 10^3 CD34^+-enriched cells were cultured in a 35 mm culture plate (1000 cells/plate) with or without LMP-420 or fludarabine in 1.1 ml Human Methylcellulose Complete Media (R&D Systems) according to the manufacturer's protocol. Plates were incubated for 14 days at 37° C. in humidified 5% CO2. Each treatment group was tested in triplicate. Colonies on plates were scored by two independent observers, blinded to the treatment groups, by microscopic evaluation under 10× and 20× power. Colonies were categorized as being of either erythroid or myeloid lineage.

[4] = system: CD34+ hematopoietic progenitor cells (myeloid colonies); assay: Colony formation assay, myeloid colonies; assay type: cell-based, human; settings: Homo sapiens, 336 h, read-out: mean IC50 for normal myeloid colony formation
Protocol: as §4

[5] = read-out: IC50 for suppression of mitogen-induced proliferation, Con A, 96 hours
[6] = read-out: IC50 for suppression of mitogen-induced proliferation, PHA, 96 hours
[7] = read-out: IC50 for suppression of mitogen-induced proliferation, PMA/Iono, 96 hours
[8] = read-out: IC50 for suppression of mitogen-induced proliferation, PWM, 96 hours
[9] = read-out: IC50 for suppression of mitogen-induced proliferation, α-CD3, 96 hours
[10] = mean, PBMCs from healthy blood donors (n = 3-6)
[11] = Con A, 96 hours, read-out: IC50 for suppression of mitogen-induced proliferation
[12] = PWM, 96 hours, read-out: IC50 for suppression of mitogen-induced proliferation

Row | Compound | Therapeutic Index (PBMC ED50/CLL ED50) (normal PBMCs [1]) | EC50 (normal PBMCs [1]) [µM] | IC50 (normal PBMCs [2]; [5]) [µM] | IC50 (normal PBMCs [2]; [6]) [µM] | IC50 (normal PBMCs [2]; [7]) [µM] | IC50 (normal PBMCs [2]; [8]) [µM] | IC50 (normal PBMCs [2]; [9]) [µM] | EC50 (normal PBMCs [1]; [10]) [µM] | IC50 (normal PBMCs [2]; [11]) [µM] | IC50 (normal PBMCs [2]; [12]) [µM] | further results
1 | 4-hydroperoxycyclophosphamide [Cyclophosphamide/4-HC] | 1.7 | – | – | – | – | – | – | – | – | – | –
2 | Cn1c(CCCC(=O)O)nc2cc(N(CCCl)CCCl)ccc21 [Bendamustine, bendamustine] | 29.2 | 146 | 16 | 17 | 35 | 14 | 20 | – | – | – | –
3 | O=C(O)CCCc1ccc(N(CCCl)CCCl)cc1 [Chlorambucil] | 22.6 | 67.7 | 12 | 11 | 7 | 7.5 | 12.5 | – | – | – | –
4 | Nc1nc(Cl)nc2c1ncn2[C@H]1C[C@H](O)[C@@H](CO)O1 [Cladribine, cladribine] | 10 | – | – | – | – | – | – | 0.1 | 0.15 | 0.1 | –
5 | Nc1nc(F)nc2c1ncn2[C@@H]1O[C@H](COP(=O)(O)O)[C@@H](O)[C@@H]1O [Fludarabine, fludarabine phosphate, reference compound] | 2.6 | – | – | – | – | – | – | 3.1 | < 3 | < 3 | EC50 (CLL cells; read-out: Median ED50 of fludarabine, 62 nM of LMP-420 added, 72 hours, 21 patient samples): 0.252 µM; EC50 (CLL cells; read-out: Median ED50 of fludarabine, 250 nM of LMP-420 added, 72 hours, 21 patient samples): 0.125 µM; EC50 (CLL cells; read-out: Median ED50 of fludarabine, no LMP-420 added, 72 hours, 21 patient samples): 0.978 µM; IC50 (normal PBMCs [2]; PHA, 96 hours, read-out: IC50 for suppression of mitogen-induced proliferation): < 3 µM; IC50 (normal PBMCs [2]; PMA/Iono, 96 hours, read-out: IC50 for suppression of mitogen-induced proliferation): 0.8 µM; IC50 (normal PBMCs [2]; α-CD3, 96 hours, read-out: IC50 for suppression of mitogen-induced proliferation): < 3 µM; apoptosis in normal B-cells (CD19-positive B-cell; 0.4 μM): caused significant apoptosis; average percent drug-specific apoptosis, B-cells (CD19-positive B-cell; 1 μM, n=3): 70%; apoptosis in normal T-cells (CD3-positive T-cell; 0.4 μM): caused significant apoptosis; average percent drug-specific apoptosis, T-cells (CD3-positive T-cell; 1 μM, n=3): 81%; IC50 [3]: 5 µM; IC50 [4]: 1 µM
